Results: US10981926B2 (Janssen Pharmaceutica NV, priority 2016, dated 2021)
Read-outs that look alike come from different tables or passages of the source.

Tests used:
Assay type in all cases: cell-based
[1] = molecular target: T1, F876L mutant Androgen Receptor (AR-F876L) (Homo sapiens (Human), UniProt P10275, F877L); experiment: LNCaP-AR-F876L AG reporter assay (agonist mode); conditions: for Emax: read-out: LNCaP-AR-F876L AG MAX % Stim
[2] = molecular target: T1, F876L mutant Androgen Receptor (AR-F876L); experiment: LNCaP-AR-F876L ANT reporter assay (antagonist mode); conditions: for Emax: read-out: LNCaP-AR-F876L ANT MAX % Inh
[3] = molecular target: T2, wild-type Androgen Receptor (AR-wt) (Homo sapiens (Human), UniProt P10275); experiment: LNCaP-AR-wt AG reporter assay (agonist mode); conditions: for Emax: read-out: LNCaP-AR-wt AG MAX % Stim
[4] = molecular target: T2, wild-type Androgen Receptor (AR-wt); experiment: LNCaP-AR-wt ANT reporter assay (antagonist mode); conditions: for Emax: read-out: LNCaP-AR-wt ANT MAX % Inh
[5] = agonist mode, pEC50 = −Log10(EC50 in Molar), read-out: LNCaP-AR-F876L AG pEC50 (converted)
[6] = maximum % stimulation (agonist response) over the tested concentration range
[7] = antagonist mode, pIC50 = −Log10(IC50 in Molar), read-out: LNCaP-AR-F876L ANT pIC50 (converted)
[8] = maximum % inhibition of R1881 control response over the tested concentration range
[9] = agonist mode, pEC50 = −Log10(EC50 in Molar), read-out: LNCaP-AR-wt AG pEC50 (converted)
[10] = antagonist mode, pIC50 = −Log10(IC50 in Molar), read-out: LNCaP-AR-wt ANT pIC50 (converted)
[11] = agonist mode, maximum % stimulation over tested concentration range
[12] = antagonist mode, maximum % inhibition of R1881 control response over tested concentration range

T2 sequence (P10275 whole entry): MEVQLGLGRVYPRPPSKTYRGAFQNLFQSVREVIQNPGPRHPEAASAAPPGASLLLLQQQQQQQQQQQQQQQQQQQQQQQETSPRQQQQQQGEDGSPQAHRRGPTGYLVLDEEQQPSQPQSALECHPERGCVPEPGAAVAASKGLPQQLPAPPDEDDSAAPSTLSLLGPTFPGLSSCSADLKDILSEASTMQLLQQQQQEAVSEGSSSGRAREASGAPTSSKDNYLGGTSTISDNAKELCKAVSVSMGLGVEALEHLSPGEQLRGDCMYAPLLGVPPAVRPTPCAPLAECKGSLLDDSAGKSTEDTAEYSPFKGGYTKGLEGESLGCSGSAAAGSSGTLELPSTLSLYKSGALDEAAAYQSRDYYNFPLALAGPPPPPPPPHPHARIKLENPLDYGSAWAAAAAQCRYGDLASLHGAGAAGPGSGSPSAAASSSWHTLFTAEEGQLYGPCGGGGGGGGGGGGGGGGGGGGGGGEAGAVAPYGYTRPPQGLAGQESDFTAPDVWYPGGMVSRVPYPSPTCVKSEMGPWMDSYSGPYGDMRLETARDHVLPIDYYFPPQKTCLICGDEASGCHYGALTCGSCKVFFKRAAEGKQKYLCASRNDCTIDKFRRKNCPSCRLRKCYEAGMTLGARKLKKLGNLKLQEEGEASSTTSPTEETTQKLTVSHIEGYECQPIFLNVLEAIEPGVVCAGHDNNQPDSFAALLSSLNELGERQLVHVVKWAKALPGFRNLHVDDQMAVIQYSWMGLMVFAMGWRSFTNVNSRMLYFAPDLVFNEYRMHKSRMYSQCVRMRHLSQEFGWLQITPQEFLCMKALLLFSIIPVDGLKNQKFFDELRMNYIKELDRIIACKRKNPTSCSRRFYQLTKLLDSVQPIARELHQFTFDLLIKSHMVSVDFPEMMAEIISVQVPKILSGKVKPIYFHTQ
T1 sequence (P10275 whole entry F877L): as the sequence (P10275 whole entry) above, with F877L counted along it

N#Cc1ncc(N2C(=O)C3(CCC3)N(c3ccc4c(cnn4C4CCNCC4)c3)C2=S)cc1Cl [Cpd 182, 3-chloro-5-[5-oxo-8-[1-(4-piperidyl)indazol-5-yl]-7-thioxo-6,8-diazaspiro[3.4]octan-6-yl]pyridine-2-carbonitrile]
EC50 [1, 5]: > 15100 nM
Emax [1, 6]: 0.1%
IC50 [2, 7]: 191 nM
Emax [2, 8]: 102%
EC50 [3, 9]: > 15100 nM
Emax [3, 6]: 0%
IC50 [4, 10]: 550 nM
Emax [4, 8]: 103%

CN1CCC[C@H](CNC(=O)c2ccc(N3C(=S)N(c4cnc(C#N)c(C(F)(F)F)c4)C(=O)C34CCC4)cc2)C1 [Cpd 184, 4-[6-[6-cyano-5-(trifluoromethyl)-3-pyridyl]-5-oxo-7-thioxo-6,8-diazaspiro[3.4]octan-8-yl]-N-[[(3R)-1-methyl-3-piperidyl]methyl]benzamide]
EC50 [1, 5]: > 15100 nM
Emax [1, 6]: 0.4%
IC50 [2, 7]: 447 nM
Emax [2, 8]: 99.6%
EC50 [3, 9]: > 15100 nM
Emax [3, 6]: 0.2%
IC50 [4, 10]: 813 nM
Emax [4, 8]: 100%

CN1CCC[C@@H](CNC(=O)c2ccc(N3C(=S)N(c4cnc(C#N)c(C(F)(F)F)c4)C(=O)C34CCC4)cc2)C1 [Cpd 185, 4-[6-[6-cyano-5-(trifluoromethyl)-3-pyridyl]-5-oxo-7-thioxo-6,8-diazaspiro[3.4]octan-8-yl]-N-[[(3S)-1-methyl-3-piperidyl]methyl]benzamide]
Emax [1, 11]: 0.8%
EC50 [1, 5]: > 15100 nM
Emax [2, 12]: 102%
IC50 [2, 7]: 427 nM
Emax [3, 11]: 0.2%
EC50 [3, 9]: > 15100 nM
Emax [4, 12]: 102%
IC50 [4, 10]: 708 nM

N#Cc1ncc(N2C(=O)C3(CCC3)N(c3ccc(C(=O)NC[C@@H]4CCCNC4)cc3)C2=S)cc1C(F)(F)F [Cpd 186, 4-[6-[6-cyano-5-(trifluoromethyl)-3-pyridyl]-5-oxo-7-thioxo-6,8-diazaspiro[3.4]octan-8-yl]-N-[[(3R)-3-piperidyl]methyl]benzamide]
Emax [1, 11]: 0%
EC50 [1, 5]: > 15100 nM
Emax [2, 12]: 100%
IC50 [2, 7]: 2240 nM
Emax [3, 11]: 0.1%
EC50 [3, 9]: > 15100 nM
Emax [4, 12]: 99.8%
IC50 [4, 10]: 3160 nM

CN1CC[C@@H](CNC(=O)c2ccc(N3C(=S)N(c4cnc(C#N)c(C(F)(F)F)c4)C(=O)C34CCC4)cc2)C1 [Cpd 187, 4-[6-[6-cyano-5-(trifluoromethyl)-3-pyridyl]-5-oxo-7-thioxo-6,8-diazaspiro[3.4]octan-8-yl]-N-[[(3S)-1-methylpyrrolidin-3-yl]methyl]benzamide]
Emax [1, 11]: 0.2%
EC50 [1, 5]: > 15100 nM
Emax [2, 12]: 101%
IC50 [2, 7]: 513 nM
Emax [3, 11]: 0.3%
EC50 [3, 9]: > 15100 nM
Emax [4, 12]: 101%
IC50 [4, 10]: 1260 nM

C[N@+]1([O-])CC[C@H](Oc2ccc(N3C(=S)N(c4cnc(C#N)c(C(F)(F)F)c4)C(=O)C34CCC4)cc2)CC1 [Cpd 190, 5-[8-[4-(1-methyl-1-oxido-piperidin-1-ium-4-yl)oxyphenyl]-5-oxo-7-thioxo-6,8-diazaspiro[3.4]octan-6-yl]-3-(trifluoromethyl)pyridine-2-carbonitrile]
Emax [1, 11]: 0.1%
EC50 [1, 5]: > 15100 nM
Emax [2, 12]: 97.4%
IC50 [2, 7]: 1660 nM
Emax [3, 11]: -0.1%
EC50 [3, 9]: > 15100 nM
Emax [4, 12]: 95.3%
IC50 [4, 10]: 3020 nM

CN1CCC(NC(=O)c2ccc(N3C(=S)N(c4cnc(C#N)c(C(F)(F)F)c4)C(=O)C34CCC4)cc2)C1 (centres unmarked) [Cpd 192, 4-[6-[6-cyano-5-(trifluoromethyl)-3-pyridyl]-5-oxo-7-thioxo-6,8-diazaspiro[3.4]octan-8-yl]-N-(1-methylpyrrolidin-3-yl)benzamide]
Emax [1, 11]: 0.1%
EC50 [1, 5]: > 15100 nM
Emax [2, 12]: 102%
IC50 [2, 7]: 692 nM
Emax [3, 11]: 0%
EC50 [3, 9]: > 15100 nM
Emax [4, 12]: 101%
IC50 [4, 10]: 1580 nM

CN1CCC12CC(Oc1ccc(N3C(=S)N(c4cnc(C#N)c(C(F)(F)F)c4)C(=O)C34CCC4)cn1)C2 (centres unmarked) [Cpd 193, 5-[8-[6-[(3-methyl-3-azaspiro[3.3]heptan-6-yl)oxy]-3-pyridyl]-5-oxo-7-thioxo-6,8-diazaspiro[3.4]octan-6-yl]-3-(trifluoromethyl)pyridine-2-carbonitrile]
Emax [1, 11]: 0.4%
EC50 [1, 5]: > 15100 nM
Emax [2, 12]: 101%
IC50 [2, 7]: 191 nM
Emax [3, 11]: 0.1%
EC50 [3, 9]: > 15100 nM
Emax [4, 12]: 101%
IC50 [4, 10]: 229 nM

CN(C(=O)OC(C)(C)C)C1(COc2ccc(N3C(=S)N(c4cnc(C#N)c(C(F)(F)F)c4)C(=O)C34CCC4)cc2)COC1 [Cpd 196, tert-butyl N-[3-[[4-[6-[6-cyano-5-(trifluoromethyl)-3-pyridyl]-5-oxo-7-thioxo-6,8-diazaspiro[3.4]octan-8-yl]phenoxy]methyl]oxetan-3-yl]-N-methyl-carbamate]
Emax [1, 11]: 0.2%
EC50 [1, 5]: > 15100 nM
Emax [2, 12]: 99.9%
IC50 [2, 7]: 437 nM
Emax [3, 11]: -0.2%
EC50 [3, 9]: > 15100 nM
Emax [4, 12]: 100%
IC50 [4, 10]: 589 nM

CN(C)C1(c2ccc(N3C(=S)N(c4cnc(C#N)c(C(F)(F)F)c4)C(=O)C34CCC4)cc2)COC1 [Cpd 197, 5-(5-(4-(3-(dimethylamino)oxetan-3-yl)phenyl)-8-oxo-6-thioxo-5,7-diazaspiro[3.4]octan-7-yl)-3-(trifluoromethyl)picolinonitrile]
EC50 [1]: > 15100 nM
Emax [1]: 0.3%
IC50 ([2]; LNCaP-AR-F876L ANT pIC50): 447 nM
Emax [2]: 101%
EC50 [3]: > 15100 nM
Emax [3]: 0.1%
IC50 ([4]; LNCaP-AR-wt ANT pIC50): 1070 nM
Emax [4]: 99.3%

CC(=O)N1CCC(n2cc3ccc(N4C(=S)N(c5cnc(C#N)c(C(F)(F)F)c5)C(=O)C45CCC5)cc3n2)CC1 [Cpd 198, 5-[8-[2-(1-acetyl-4-piperidyl)indazol-6-yl]-5-oxo-7-thioxo-6,8-diazaspiro[3.4]octan-6-yl]-3-(trifluoromethyl)pyridine-2-carbonitrile]
Emax [1, 11]: 0.1%
EC50 [1, 5]: > 15100 nM
Emax [2, 12]: 102%
IC50 [2, 7]: 562 nM
Emax [3, 11]: 0.1%
EC50 [3, 9]: > 15100 nM
Emax [4, 12]: 102%
IC50 [4, 10]: 562 nM

CN1CCC(n2cc3ccc(N4C(=S)N(c5cnc(C#N)c(C(F)(F)F)c5)C(=O)C45CCC5)cc3n2)CC1 [Cpd 199, 5-[8-[2-(1-methyl-4-piperidyl)indazol-6-yl]-5-oxo-7-thioxo-6,8-diazaspiro[3.4]octan-6-yl]-3-(trifluoromethyl)pyridine-2-carbonitrile]
Emax [1, 11]: 0.9%
EC50 [1, 5]: > 15100 nM
Emax [2, 12]: 102%
IC50 [2, 7]: 1510 nM
Emax [3, 11]: -0.2%
EC50 [3, 9]: > 15100 nM
Emax [4, 12]: 88.9%
IC50 [4, 10]: 1620 nM

CN1CCC[C@@H](CNC(=O)c2ccc(N3C(=S)N(c4cnc(C#N)c(C(F)(F)F)c4)C(=O)C34CCC4)cc2F)C1 [Cpd 200, 4-[6-[6-cyano-5-(trifluoromethyl)-3-pyridyl]-5-oxo-7-thioxo-6,8-diazaspiro[3.4]octan-8-yl]-2-fluoro-N-[[(3S)-1-methyl-3-piperidyl]methyl]benzamide]
Emax [1, 11]: 0.5%
EC50 [1, 5]: > 15100 nM
Emax [2, 12]: 99.1%
IC50 [2, 7]: 794 nM
Emax [3, 11]: 0.4%
EC50 [3, 9]: > 15100 nM
Emax [4, 12]: 99.6%
IC50 [4, 10]: 708 nM
